Columns and labels:
BV2 cells = assay: NO and PGE2 production after LPS; type: cell-based; details: 3 h pretreatment (Table 3 amounts), LPS 1 μg/ml 24 h
Summary of the method: (§1)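 RAW264.7 or BV2 cells (5×10^5 cells/well) in DMEM with 10% FBS were pretreated with compound, then stimulated with 1 μg/ml LPS for 24 h. iNOS and COX-2 expression by Western blot; NO and PGE2 production measured. Compound toxicity checked by MTT.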

RAW264.7 cells = assay: NO and PGE2 production after LPS; type: cell-based; details: 3 h pretreatment (Table 3 amounts), LPS 1 μg/ml 24 h
Summary of the method: as §1

SH-SY5Y cells [1] = assay: Intracellular ATP production after MPP+ mitochondrial damage; type: cell-based, Human; details: 1 mM MPP+ 24 h, then 0.0001-1 μM compound 24 h, FIG. 3
Description: (§2) Human neuronal SH-SY5Y cells were cultured in a 1:1 DMEM/F12 medium containing 10% FBS (fetal bovine serum) at 37° C. under 5% carbon dioxide and 95% air. The cultured cells were transferred to a 96-well cell culture plate at a density of 2*10^4 cells/well and cultured for 24 hours. Thereafter, after replacement with serum-restricted medium (1:1 DMEM/F12 medium containing 0.5% FBS), the cells were cultured for 16 hours. Then, the cultured cells were treated with 1 mM MPP+ (1-methyl-4-phenylpyridinium) and cultured for 24 hours, thus inducing mitochondrial dysfunction in the cells. […]
100 μl of the cell lysate of the culture obtained in Experimental Example 3-1 was mixed with 100 μl of luciferin-luciferase reaction buffer using an ATP bioluminescent somatic cell assay kit (Sigma-Aldrich), and the mixture was allowed to react at 20° C. for 10 minutes. Thereafter, the supernatant was obtained and the fluorescence intensity thereof was measured with an LB 9501 Lumat-Luminometer to confirm recovery from the decrease in intracellular ATP production caused by mitochondrial damage.
The fluorescence intensities of controls were measured in the same manner as the above-described method, except for using a sample to which DMSO was added (normal control) instead of MMP+ and the compound of Formula III-1 and a sample to which the compound of Formula III-1 was not added (negative control). […]

SH-SY5Y cells [2] = assay: Reactive oxygen species generation (DCF-DA) after MPP+; type: cell-based, Human; details: 1 mM MPP+ 24 h, then 0.0001-1 μM compound 24 h, FIG. 4
Description: as §2
Based on the principle that 2′,7′-dichlorofluorescein diacetate (DCF-DA) is oxidized to fluorescent DCF by reaction with reactive oxygen species, the level of reactive oxygen species generation was measured. […] Then, the fluorescence intensity of DCF at an excitation wavelength of 485 nm and an emission wavelength of 535 nm and the fluorescence intensity of bisbenzimide at an excitation wavelength of 335 nm and an emission wavelength of 460 nm were measured using a fluorescence analyzer to determine the level of reactive oxygen species generation. […]
The concentration of DCF determined from the fluorescence intensity was expressed as a percentage of the normal control.

PON2 mRNA = assay: Relative expression level of PON2 mRNA in liver of DIO mice (real-time PCR); type: in vivo, C57BL/6J DIO mice; details: 100 mg/kg orally once daily for 6 weeks, 60% fat diet, FIG. 1a
Description: 14-Week-old C57BL/6J DIO (Diet Induced Obesity) mice (The Jackson Laboratory, USA) were purchased. The normal control group was fed a 10% fat diet for 3 weeks, and the DIO control group was fed a 60% fat diet for 3 weeks. In addition, the Formula III-1 compound-administered group was fed a 60% fat diet for 3 weeks, and then 100 mg/kg of the compound of Formula III-1 was orally administered thereto once daily for 6 weeks.
The mice of the normal control group, the DIO control group and the Formula III-1 compound-administered group were euthanized, and the liver tissues were extracted therefrom, washed with a PBS solution containing PIC (protease inhibitor cocktail), sectioned to a size of 0.2 to 0.5 g, and stored at −196° C. until the experiment.
The following experiment was conducted using the liver tissue sections from the normal control group, the DIO control group and the Formula III-1 compound-administered group.
The relative expression level of PON2 mRNA was analyzed using real-time PCR. Specifically, trizol (Invitrogen, Carlsbad, Calif., USA) was added to the liver tissue which was then minced using a homogenizer, and total RNA was extracted therefrom. […]

CCOc1ccc(C2COc3c(ccc4c3CCC(C)(C)O4)C2)c(O)c1 (stereo not shown) [Formula III-1, 2-(8,8-dimethyl-2,3,4,8,9,10-hexahydropyrano[2,3-f]chromen-3-yl)-5-ethoxyphenol]
production of NO (BV2 cells): concentration-dependently decreased | production of PGE2 (BV2 cells): concentration-dependently decreased | production of NO (RAW264.7 cells): concentration-dependently decreased | production of PGE2 (RAW264.7 cells): concentration-dependently decreased | decrease in ATP production caused by mitochondrial damage due to MPP+ (SH-SY5Y cells [1]): recovery | level of intracellular reactive oxygen species generation (DCF) (SH-SY5Y cells [2]): decreased | expression level of PON2 mRNA compared with normal control group (PON2 mRNA): higher
